Columns and labels:
[1] = target: Cathepsin S (Homo sapiens, UniProt P25774); test: Cathepsin S inhibition assay (fluorogenic peptide substrate); format: biochemical; conditions: Table II, compounds of Formula I; read-out: Ki Cat. S
Procedure: “Inhibition constant”, Ki, is the dissociation constant of the enzyme-inhibitor complex, or the reciprocal of the binding affinity of the inhibitor to the enzyme. […] The inhibited rates are then fit by nonlinear regression to the following equation: […]
The assumption being made for the classical inhibition described above is that the free inhibitor concentration is equal to the total inhibitor concentration.
Kinetic measurements are performed in a total reaction volume of 30 μl in 384-well microtiter plates. […] The reactions are initiated by adding the substrate, acetyl-histidine-proline-valine-lysine-amino carbamoyl coumarin, to a final concentration of 50 μM. The rate of substrate hydrolysis is measured by monitoring the increase in fluorescence at an excitation wavelength of 380 nm and an emission wavelength of 450 nm that results from cleavage of the aniline bond in the substrate by the enzyme.

[2] = target: T1, Cathepsin K (Homo sapiens, UniProt P43235); test: Cathepsin K inhibition assay (fluorogenic peptide substrate); selectivity ratio vs cathepsin S; format: biochemical; conditions: ratio of cathepsin K inhibition constant to cathepsin S inhibition constant; Table II
T1 sequence (P43235 115-329): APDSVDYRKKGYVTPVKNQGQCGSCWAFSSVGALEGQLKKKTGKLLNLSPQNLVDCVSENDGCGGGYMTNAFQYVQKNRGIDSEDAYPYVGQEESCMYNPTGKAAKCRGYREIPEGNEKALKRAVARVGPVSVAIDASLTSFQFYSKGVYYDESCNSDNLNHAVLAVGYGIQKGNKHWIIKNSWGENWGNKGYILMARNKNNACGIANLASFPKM
Procedure: The optimal substrate for cathepsin K, acetyl-lysine-histidine-proline-lysine-amino carbamoyl coumarin, was identified from screening a combinatorial library of fluorogenic peptide substrates (Harris, J. L., B. J. Backes, et al., Proc Natl Acad Sci USA 2000, 97(14), 7754-9). Kinetic measurements are performed in a total reaction volume of 30 μl in 384-well microtiter plates. […] The reactions are initiated by adding the substrate, acetyl-lysine-histidine-proline-lysine-amino carbamoyl coumarin, to a final concentration of 40 μM. The rate of substrate hydrolysis is measured by monitoring the increase in fluorescence at an excitation wavelength of 380 nm and an emission wavelength of 450 nm that results from cleavage of the aniline bond in the substrate by the enzyme. The apparent inhibition constants for the compounds are determined from the enzyme progress curves ([…]. Elrod, et al., Anal Biochem 2000, 286(1), 45-50) and are then used to calculate the inhibition constants for competitive inhibitors. Selectivity for cathepsin S in the presence of cathepsin isozymes was determined by the ratio of the cathepsin isozyme inhibition constant of a compound of the present invention to the cathepsin S inhibition constant of the same compound.

Chain of Cathepsin S (P25774 115-331, species assumed): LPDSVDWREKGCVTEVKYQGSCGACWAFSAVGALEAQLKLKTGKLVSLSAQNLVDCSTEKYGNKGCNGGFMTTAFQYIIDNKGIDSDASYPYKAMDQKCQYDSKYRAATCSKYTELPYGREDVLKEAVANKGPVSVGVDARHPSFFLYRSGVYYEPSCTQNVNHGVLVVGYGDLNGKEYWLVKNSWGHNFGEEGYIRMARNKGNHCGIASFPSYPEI

Structure (SMILES) | Ki [1] [nM] | Selectivity for Cat. S over Cat. K [2]
COc1ccc(CC(=O)N[C@@H](CC2CCCCC2)C(=O)NCCNc2ccc(F)cc2)cc1 [Compound 301, 3-Cyclohexyl-N-[2-(4-fluoro-phenylamino)-ethyl]-2-(S)-[2-(4-methoxy-phenyl)-acetylamino]-propionamide] | < 100 | ++ (++, >100)
COc1ccc(NCCNC(=O)[C@H](Cc2ccc(O)cc2)NC(=O)c2cccc(C)c2)cc1 [Compound 228, (S)-N-{2-(4-Hydroxy-phenyl)-1-[2-(4-methoxy-phenylamino)-ethylcarbamoyl]-ethyl}-3-methyl-benzamide] | < 100 | +++ (+++, >1000)
COc1ccc(NCCNC(=O)[C@H](CCC2CCCCC2)NC(=O)c2cc3cc(F)ccc3[nH]2)cc1 [Compound 132, (S)-5-Fluoro-1H-indole-2-carboxylic acid {3-cyclohexyl-1-[2-(4-methoxy-phenylamino)-ethylcarbamoyl]-propyl}-amide] | < 1000 | ++ (++, >100)
COc1ccc(NCCNC(=O)[C@H](Cc2ccc(Cl)cc2)NC(=O)c2ccc(-c3cccc(C(F)(F)F)c3)o2)cc1 [Compound 4, N-((S)-1-(2-(4-methoxyphenylamino)ethylcarbamoyl)-2-(4-chlorophenyl)ethyl)-5-(3-(trifluoromethyl)phenyl)furan-2-carboxamide] | < 100 | +++ (+++, >1000)
CC(C(=O)N[C@@H](CC1CCCCC1)C(=O)NCCNc1ccc(F)cc1)c1ccc(O)cc1 (stereo partly drawn) [Compound 311, N-{2-cyclohexyl-1-(S)-[2-(4-fluoro-phenylamino)-ethylcarbamoyl]-ethyl}-2-(4-hydroxy-phenyl)-propionamide] | < 100 | + (+, >10)
COc1ccc(NCCNC(=O)C(NC(=O)c2cccc(C)c2)C(C)c2ccccc2)cc1 (stereo not drawn) [Compound 268, threo-N-{1-[2-(4-Methoxy-phenylamino)-ethylcarbamoyl]-2-phenyl-propyl}-3-methyl-benzamide] | < 1000 | ++ (++, >100)
COc1ccc(NCCNC(=O)[C@H](CCC2CCCCC2)NC(=O)c2ccc(N3CCOCC3)cc2)cc1 [Compound 127, (S)-N-{3-Cyclohexyl-1-[2-(4-methoxy-phenylamino)-ethylcarbamoyl]-propyl}-4-morpholin-4-yl-benzamide] | < 1000 | ++ (++, >100)
COc1ccc(NCCNC(=O)[C@H](CC2CCCCC2)NC(=O)c2cc(Cl)ccc2F)cc1 [Compound 156, (S)-5-Chloro-N-{2-cyclohexyl-1-[2-(4-methoxy-phenylamino)-ethylcarbamoyl]-ethyl}-2-fluoro-benzamide] | < 100 | +++ (+++, >1000)
O=C(N[C@@H](CC1CCCCC1)C(=O)NCCNc1ccc(OC(F)(F)F)cc1)c1ccc(-c2ccc(OC(F)(F)F)cc2)s1 [Compound 207, (S)-5-(4-Trifluoromethoxy-phenyl)-thiophene-2-carboxylic acid {2-cyclohexyl-1-[2-(4-trifluoromethoxy-phenylamino)-ethylcarbamoyl]-ethyl}-amide] | < 1000 | ++ (++, >100)
O=C(Cn1cnnn1)N[C@@H](CC1CCCCC1)C(=O)NCCNc1ccc(OC(F)(F)F)cc1 [Compound 46, 3-Cyclohexyl-2-(S)-(2-tetrazol-1-yl-acetylamino)-N-[2-(4-trifluoromethoxy-phenylamino)-ethyl]-propionamide] | < 1000 | ++ (++, >100)
O=C(N[C@@H](CC1CCCCC1)C(=O)NCCNc1ccc(OC(F)(F)F)cc1)c1ccc(-c2cnco2)cc1 [Compound 67, N-(S)-{2-cyclohexyl-1-[2-(4-trifluoromethoxy-phenylamino)-ethylcarbamoyl]-ethyl}-4-oxazol-5-yl-benzamide] | < 100 | + (+, >10)
COc1ccc(NCCNC(=O)[C@H](Cc2ccc(Oc3ccccc3C)cc2)NC(=O)c2cccc(C)c2)cc1 [Compound 66, (S)-N-[1-[2-(4-Methoxy-phenylamino)-ethylcarbamoyl]-2-(4-o-tolyloxy-phenyl)-ethyl]-3-methyl-benzamide] | < 1000 | ++ (++, >100)
COc1ccc(NCCNC(=O)[C@H](CC2CCCCC2)NC(=O)c2ccccc2F)cc1 [Compound 145, (S)-N-{2-Cyclohexyl-1-[2-(4-methoxy-phenylamino)-ethylcarbamoyl]-ethyl}-2-fluoro-benzamide] | < 100 | +++ (+++, >1000)
O=C(N[C@@H](CC1CCCCC1)C(=O)NCCNc1ccc(F)cc1)c1ccnnc1 [Compound 295, Pyridazine-4-carboxylic acid (S)-{2-cyclohexyl-1-[2-(4-fluoro-phenylamino)-ethylcarbamoyl]-ethyl}-amide] | < 1000 | ++ (++, >100)
CC[C@@H](C(=O)N[C@@H](CC1CCCCC1)C(=O)NCCNc1ccc(OC(F)(F)F)cc1)c1ccccc1 [Compound 135, N-{2-cyclohexyl-1-(S)-[2-(4-trifluoromethoxy-phenylamino)-ethylcarbamoyl]-ethyl}-2-(R)-phenyl-butyramide] | < 100 | +++ (+++, >1000)
Cc1nc(-c2ccc(C(=O)N[C@@H](CC3CCCCC3)C(=O)NCCNc3ccc(OC(F)(F)F)cc3)cc2)no1 [Compound 27] | < 100 | +++ (+++, >1000)
O=C(N[C@@H](CC1CCCCC1)C(=O)NCCNc1ccc(OC(F)(F)F)cc1)c1ccc(-c2ccc(C(F)(F)F)cc2)s1 [Compound 205, (S)-5-(4-Trifluoromethyl-phenyl)-thiophene-2-carboxylic acid {2-cyclohexyl-1-[2-(4-trifluoromethoxy-phenylamino)-ethylcarbamoyl]-ethyl}-amide] | < 100 | ++ (++, >100)
COc1ccc(NCCNC(=O)[C@H](CC2CCCCC2)NC(=O)c2cccc(C)c2Cl)cc1 [Compound 108, (S)-2-Chloro-N-{2-cyclohexyl-1-[2-(4-methoxy-phenylamino)-ethylcarbamoyl]-ethyl}-3-methyl-benzamide] | < 100 | ++ (++, >100)
COc1ccc(NCCNC(=O)[C@H](Cc2ccc(OCc3ccccc3)cc2)NC(=O)c2cccc(C)c2)cc1 [Compound 247, (S)-N-{2-(4-Benzyloxy-phenyl)-1-[2-(4-methoxy-phenylamino)-ethylcarbamoyl]-ethyl}-3-methyl-benzamide] | < 100 | +++ (+++, >1000)
Cc1cccc(-c2ccc(C(=O)N[C@@H](CC3CCCCC3)C(=O)NCCNc3ccc(OC(F)(F)F)cc3)o2)c1 [Compound 51, 5-m-Tolyl-furan-2-carboxylic acid (S)-{2-cyclohexyl-1-[2-(4-trifluoromethoxy-phenylamino)-ethylcarbamoyl]-ethyl}-amide] | < 100 | +++ (+++, >1000)
COc1ccc(NCCNC(=O)[C@H](CC2CCCCC2)NC(=O)c2cnn(-c3ccc(OC)cc3)c2C)cc1 [Compound 162, (S)-1-(4-Methoxy-phenyl)-5-methyl-1H-pyrazole-4-carboxylic acid {2-cyclohexyl-1-[2-(4-methoxy-phenylamino)-ethylcarbamoyl]-ethyl}-amide] | < 100 | + (+, >10)
COc1ccc(NCCNC(=O)[C@H](CC2CCCCC2)NC(=O)c2cnn(-c3ccccc3)c2C(F)(F)F)cc1 [Compound 115, (S)-1-Phenyl-5-trifluoromethyl-1H-pyrazole-4-carboxylic acid {2-cyclohexyl-1-[2-(4-methoxy-phenylamino)-ethylcarbamoyl]-ethyl}-amide] | < 100 | +++ (+++, >1000)
O=C(Cc1cccc(F)c1)N[C@@H](CC1CCCCC1)C(=O)NCCNc1ccc(F)cc1 [Compound 260, 3-Cyclohexyl-2-(S)-[2-(3-fluoro-phenyl)-acetylamino]-N-[2-(4-fluoro-phenylamino)-ethyl]-propionamide] | < 100 | ++ (++, >100)
O=C(Cc1ccc(F)cc1)N[C@@H](CC1CCCCC1)C(=O)NCCNc1ccc(F)cc1 [Compound 152, 3-Cyclohexyl-2-(S)-[2-(4-fluoro-phenyl)-acetylamino]-N-[2-(4-fluoro-phenylamino)-ethyl]-propionamide] | < 100 | ++ (++, >100)

Source: patent US7109243B2 (IRM LLC, priority 2003, dated 2006)
